{
  "source": "patent US4207326A",
  "about": "“Antimicrobial quaternary pyrazole derivatives” (Cilag-Chemie A.G., priority 1979, dated 1980)",
  "key": {"P. mirabilis": {"tested_on": "P. mirabilis", "assay": "Antibacterial activity: Minimum Inhibitory Concentration", "type": "cell-based, Proteus mirabilis NCTC 8559", "settings": "P. mirabilis, 37° C., 24 hours; for MIC: Proteus mirabilis, read-out: Minimum Inhibitory Concentration", "procedure": "(§1) The antimicrobial activity was determined by inoculation of the test microorganism into suitable growth media containing solutions of the compounds at concentrations of 100, 50, 10, 5, 1.0, 0.5 and 0.1 μg/ml. The reference antibiotics used were Gentamicin for the antibacterial tests and Amphotericin B for the antimycotic and antifungal tests. After incubation the antimicrobial activity was recorded as the Minimal Inhibitory Concentration (M.I.C.), i.e., the lowest concentration preventing macroscopically visible growth, for each test compound against each organism.\n(§2) An initial solution of each formula (I) compound to be tested in sterile distilled water was prepared at a concentration of 1000 μg/ml. With appropriate dilutions using sterile distilled water, additional solutions were prepared at concentrations of 500, 100, 50, 10, 5 and 1 μg/ml.\n(§3) They were cultured and maintained on Tryptone Soy Agar (Oxoid CM 131), with the addition of 10% horse blood for the S. pyogenes.\n(§4) To prepare the organisms as inocula for the test, slopes of this medium were streaked with the organisms and incubated at 37° C. for 24 hours. 4.5 Ml volumes of Brian-Heart Infusion Broth (Oxoid CM 225) were then inoculated with a platinum loop from the agar slope cultures and incubated for 24 hours at 37° C. The final inocula were then prepared by adding 0.1 ml aliquots of the Brain-Heart Infusion Broth cultures to 100 ml volumes of sterile physiological saline.\n(§5) (a) For the test on each of the bacterial strains and each of the test and reference compounds, a series of 8 tubes containing 4.5 ml volumes of Brain-Heart Infusion Broth (Oxoid CM 225) were prepared. To 7 of these were added 0.5 ml volumes of the final solutions of the test compouns, giving final concentrations in the broths of 100, 50, 10, 5, 1.0, 0.5 and 0.1 μg/ml. To the eighth tube in each series was added 0.5 ml of the solvent used and diluted as for the preparation of the 1000 μg/ml solution of the compound. This tube was used as the growth control. The tubes were inoculated with 0.02 ml aliquots of the inocula prepared in accordance with \"(a) Bacteria\" above, and incubated at 37° C. for 24 hours. The tubes were then examined for evidence of bacterial growth as shown by turbidity of the medium and the lowest concentration of the test compound which prevented bacterial growth was recorded as the Minimal Inhibitory Concentration. This test procedure was carried out on two separate days."}, "P. verrucosa": {"tested_on": "P. verrucosa", "assay": "Antifungal activity: Minimum Inhibitory Concentration", "type": "cell-based, Phialophore verrucosa NCPF 1119", "settings": "P. verrucosa, 27° C., one week; for MIC: Phialophora verrucosa, read-out: Minimum Inhibitory Concentration", "procedure": "as §1, §2\n(§6) The A. corymbifera, A. fumigatus, S. schenkii, T. rubrum, T. mentagrophytes, M. canis and P. verrucosa strains were all maintained on Sabouraud-Dextrose Agar (Oxoid CM 41) by incubating for 14 days at 27° C. To prepare the inocula 30 ml volumes of Sabouraud-Liquid medium (Oxoid CM 147) were inoculated from the agar cultures and incubated at 27° C. until heavy uniform growth resulted. The mycelial growth was then broken up by shaking with glass beads.\n(§7) 1 Ml aliquots were removed from each of the cultures for the purpose of making viable counts and the cultures were then held at 4° C. The viable counts were made by preparing serial ten-fold dilutions of the cultures in sterile physiological saline and spreading on plates of Sabouraud-Dextrose Agar (Oxoid CM 41) which were then incubated at 27° C. for 14 days. When the viable counts had confirmed that each of the inocula contained approximately 10^6 colony forming units (C.F.U.) per ml the cultures were withdrawn from the refrigerator and used as the inocula for the tests.\n(§8) (c) For the tests on each of the remaining seven strains and each of the test and reference compounds, a series of 8 tubes containing 4.5 ml volumes of Sabouraud-Liquid Medium (Oxoid CM 147) were prepared. To 7 of these were added 0.5 ml volumes of the final solutions of the test compounds, giving final concentrations in the broths of 100, 50, 10, 5, 1.0, 0.5 and 0.1 μg/ml. To the eighth tube in each series was added 0.5 ml of the solvent used and diluted as for the preparation of the 500 μg/ml solution of the compound. This tube was used as a growth control. The tubes were then inoculated with 0.1 ml aliquots of the inocula prepared as in \"(b) Fungi\" above. The tubes were then incubated at 27° C. with continuous shaking for a period of one week. The tubes were then examined for evidence of growth as shown by the presence of mycelial growth in the medium and the lowest concentration of the test compound which prevented fungal growth was recorded as the Minimal Inhibitory Concentration. This test procedure was carried out on two separate days."}, "C. neoformans": {"tested_on": "C. neoformans", "assay": "Antimycotic activity: Minimum Inhibitory Concentration", "type": "cell-based, Cryptococcus neoformans NCPF 3184", "settings": "pH 5.5, 30° C., 72 hours; for MIC: Cryptococcus neoformans, pH 5.5, C. neoformans, read-out: Minimum Inhibitory Concentrations; for Minimum Inhibitory Concentrations: C. neoformans", "procedure": "as §1, §2\nThe C. neoformans was also maintained on Sabouraud-Dextrose Agar (Oxoid CM 41), but in this case cultures for the preparation of the inoculum were incubated on this agar at 30° C. for 48 hours. A 4.5 ml volume of citric acid-phosphate buffer pH 5.5 plus Yeast-Nitrogen Base (Difco-0392-15) was then inoculated from the agar culture and incubated at 30° C. for 48 hours. A 0.1 ml aliquot of this culture was then added to 100 ml sterile physiological saline to give the final inoculum.\n(b) For the tests on each of the C. albicans, C. tropicalis and C. neoformans strains and each of the test and reference compounds, a series of 8 tubes containing 4.5 ml volumes of citric acid-phosphate buffer pH 5.5 plus Yeast-Nitrogen Base (Difco 0392-15) were prepared. To 7 of these were added 0.5 ml volumes of the final solutions of the test compounds, giving final concentrations in the broths of 100, 50, 10, 5, 1.0, 0.5 and 0.1 μg/ml. To the eighth tube in each series was added 0.5 ml of the solvent used and diluted as for the preparation of the 1000 μg/ml solution of the compound. This tube was used as the growth control. The tubes were then inoculated with 0.1 ml aliquots of the inocula prepared as in \"(b) Fungi\" above. The tubes inoculated with the C. albicans and C. tropicalis were inoculated at 37° C. for 72 hours and the tubes inoculated with the C. neoformans straim were incubated at 30° C. for 72 hours. […] The tubes were then examined for evidence of growth as shown by turbidity of the medium and the lowest concentration of the test compound which prevented fungal growth was recorded as the Minimal Inhibitory Concentration. This test procedure was carried out on two separate days."}, "S. aureus": {"tested_on": "S. aureus", "assay": "Antibacterial activity: Minimum Inhibitory Concentration", "type": "cell-based, Staphylococcus aureus ATCC 6538", "settings": "24 hours; for MIC: Staphylococcus aureus", "procedure": "as §1, §2, §3, §4, §5"}, "A. corymbifera": {"tested_on": "A. corymbifera", "assay": "Antifungal activity: Minimum Inhibitory Concentration", "type": "cell-based, Absidia corymbifera NCPF 2001", "settings": "A. corymbifera, 27° C., one week; for MIC: Lichtheimia corymbifera, read-out: Minimum Inhibitory Concentration", "procedure": "as §1, §2\nA. corymbifera NCPF 2001\nas §6, §7, §8"}, "S. schenkii": {"tested_on": "S. schenkii", "assay": "Antifungal activity: Minimum Inhibitory Concentration", "type": "cell-based, Sporotrichon schenkii NCPF 3182", "settings": "S. schenkii, 27° C., one week; for MIC: read-out: Minimum Inhibitory Concentration", "procedure": "as §1, §2, §6, §7, §8"}},
  "note": "Where two headings read alike, the source gives them in different places.",
  "data": [
    {"compound": "CCCCCCCCCCCC[n+]1c(C)cc(C)n1Cc1ccc(Cl)cc1.[Br-]", "note": "[Example 6-E, 2-(p-chlorobenzyl)-3,5-dimethyl-1-dodecyl-pyrazolium bromide]", "values": [
      {"measurement": "MIC", "setting": "P. mirabilis; Day 1", "result": 50, "unit": "µg/mL"},
      {"measurement": "MIC", "setting": "P. mirabilis; Day 2", "result": 50, "unit": "µg/mL"},
      {"measurement": "MIC", "setting": "P. verrucosa; Day 1", "result": 5, "unit": "µg/mL"},
      {"measurement": "MIC", "setting": "P. verrucosa; Day 2", "result": 5, "unit": "µg/mL"},
      {"measurement": "MIC", "setting": "C. neoformans; Day 1", "result": 0.5, "unit": "µg/mL"},
      {"measurement": "MIC", "setting": "C. neoformans; Day 2", "result": 0.5, "unit": "µg/mL"},
      {"measurement": "MIC", "setting": "S. aureus; Day 1, 37° C.", "result": 0.5, "unit": "µg/mL"},
      {"measurement": "MIC", "setting": "S. aureus; Day 2, 37° C.", "result": 0.5, "unit": "µg/mL"},
      {"measurement": "MIC", "setting": "A. corymbifera; Day 1", "result": 10, "unit": "µg/mL"},
      {"measurement": "MIC", "setting": "A. corymbifera; Day 2", "result": 50, "unit": "µg/mL"},
      {"measurement": "MIC", "setting": "S. schenkii; Day 1", "result": 5, "unit": "µg/mL"},
      {"measurement": "MIC", "setting": "S. schenkii; Day 2", "result": 1, "unit": "µg/mL"}
    ]},
    {"compound": "2,3(5)-dimethyl-1-dodecyl-pyrazolium methosulfate [Example 8-A]", "values": [
      {"measurement": "Minimum Inhibitory Concentration", "setting": "P. mirabilis; Day 1", "result": 100, "unit": "µg/mL"},
      {"measurement": "Minimum Inhibitory Concentration", "setting": "P. mirabilis; Day 2", "result": 100, "unit": "µg/mL"},
      {"measurement": "Minimum Inhibitory Concentration", "setting": "P. verrucosa; Day 1", "result": 10, "unit": "µg/mL"},
      {"measurement": "Minimum Inhibitory Concentration", "setting": "P. verrucosa; Day 2", "result": 10, "unit": "µg/mL"},
      {"measurement": "Minimum Inhibitory Concentrations", "setting": "C. neoformans; Day 1", "result": 5, "unit": "µg/mL"},
      {"measurement": "Minimum Inhibitory Concentrations", "setting": "C. neoformans; Day 2", "result": 1, "unit": "µg/mL"},
      {"measurement": "Minimum Inhibitory Concentration", "setting": "S. aureus; Day 1, 37° C.", "result": 1, "unit": "µg/mL"},
      {"measurement": "Minimum Inhibitory Concentration", "setting": "S. aureus; Day 2, 37° C.", "result": 0.5, "unit": "µg/mL"},
      {"measurement": "Minimum Inhibitory Concentration", "setting": "A. corymbifera; Day 1", "result": 100, "unit": "µg/mL"},
      {"measurement": "Minimum Inhibitory Concentration", "setting": "A. corymbifera; Day 2", "result": 100, "unit": "µg/mL"},
      {"measurement": "Minimum Inhibitory Concentration", "setting": "S. schenkii; Day 1", "result": 10, "unit": "µg/mL"},
      {"measurement": "Minimum Inhibitory Concentration", "setting": "S. schenkii; Day 2", "result": 10, "unit": "µg/mL"}
    ]},
    {"compound": "CCCCCCCCCCCCn1c(C)cc(C)[n+]1C", "note": "[Example 1, 1-dodecyl-2,3,5-trimethyl-pyrazolium methosulfate]", "values": [
      {"measurement": "MIC", "setting": "P. mirabilis; Day 1", "result": 100, "unit": "µg/mL"},
      {"measurement": "MIC", "setting": "P. mirabilis; Day 2", "result": 100, "unit": "µg/mL"},
      {"measurement": "MIC", "setting": "P. verrucosa; Day 1", "result": 5, "unit": "µg/mL"},
      {"measurement": "MIC", "setting": "P. verrucosa; Day 2", "result": 5, "unit": "µg/mL"},
      {"measurement": "MIC", "setting": "C. neoformans; Day 1", "result": 0.5, "unit": "µg/mL"},
      {"measurement": "MIC", "setting": "C. neoformans; Day 2", "result": 0.5, "unit": "µg/mL"},
      {"measurement": "MIC", "setting": "S. aureus; Day 1, 37° C.", "result": 5, "unit": "µg/mL"},
      {"measurement": "MIC", "setting": "S. aureus; Day 2, 37° C.", "result": 5, "unit": "µg/mL"},
      {"measurement": "MIC", "setting": "A. corymbifera; Day 1", "result": "> 100", "unit": "µg/mL"},
      {"measurement": "MIC", "setting": "A. corymbifera; Day 2", "result": "> 100", "unit": "µg/mL"},
      {"measurement": "MIC", "setting": "S. schenkii; Day 1", "result": 50, "unit": "µg/mL"},
      {"measurement": "MIC", "setting": "S. schenkii; Day 2", "result": 10, "unit": "µg/mL"}
    ]}
  ]
}
